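Results reflect a 48-hour exposure of cells in 96-well plates to compound at five concentrations. At the GI50, growth is halved.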 Calls of active or inactive are those of the source. Cut-off read from the data, not from the text of the source: active = GI50 up to about 1.1 µM and inactive = higher.
How the values were obtained:
Test in all cases: inhibition of tumour cell growth, NCI panel, 48 h
A549 = tested on: A549
SK-MEL-28 = tested on: SK-MEL-28
MOLT-4 = tested on: MOLT-4
OVCAR-4 = tested on: OVCAR-4
TK-10 = tested on: TK-10
NCI-H522 = tested on: NCI-H522
U-251 = tested on: U-251
HL-60 = tested on: HL-60
NCI-H226 = tested on: NCI-H226
786-0 = tested on: 786-0
SF-295 = tested on: SF-295
HOP-92 = tested on: HOP-92
OVCAR-8 = tested on: OVCAR-8
OVCAR-5 = tested on: OVCAR-5
A498 = tested on: A498
M14 = tested on: M14
CCRF-CEM = tested on: CCRF-CEM
UACC-62 = tested on: UACC-62

| SMILES | GI50 (A549) | GI50 (SK-MEL-28) | GI50 (MOLT-4) | GI50 (OVCAR-4) | GI50 (TK-10) | GI50 (NCI-H522) | GI50 (U-251) | GI50 (HL-60) | GI50 (NCI-H226) | GI50 (786-0) | GI50 (SF-295) | GI50 (HOP-92) | GI50 (OVCAR-8) | GI50 (OVCAR-5) | GI50 (A498) | GI50 (M14) | GI50 (CCRF-CEM) | GI50 (UACC-62) |
| --- | --- | --- | --- | --- | --- | --- | --- | --- | --- | --- | --- | --- | --- | --- | --- | --- | --- | --- |
| O=C1CCC2(c3ccc(Cl)cc3)Nc3ccccc3N12 (centres undefined) | 52.6 µM (inactive) | > 100 µM (inactive) | 30.3 µM (inactive) | 75 µM (inactive) | > 100 µM (inactive) | 55.5 µM (inactive) | > 100 µM (inactive) | 35.5 µM (inactive) | 67.9 µM (inactive) | > 100 µM (inactive) | > 100 µM (inactive) | 19.9 µM (inactive) | > 100 µM (inactive) | > 100 µM (inactive) | > 100 µM (inactive) |  |  |  |
| Cc1coc2c1C(=O)C(=O)c1ccccc1-2 | 2.04 µM (inactive) | 1.71 µM (inactive) | 2.21 µM (inactive) | 1.82 µM (inactive) | 1.9 µM (inactive) | 1.72 µM (inactive) | 1.61 µM (inactive) |  | 1.21 µM (inactive) | 1.84 µM (inactive) | 1.65 µM (inactive) | 0.401 µM (active) | 0.322 µM (active) | 2.11 µM (inactive) | 1.83 µM (inactive) | 1.35 µM (inactive) | 2.22 µM (inactive) | 1.59 µM (inactive) |
| O=C(NC(Cc1ccccc1)C(=O)CCl)OCc1ccccc1 (centres undefined) | 18.2 µM (inactive) | 12.1 µM (inactive) |  |  | 15 µM (inactive) | 1.67 µM (inactive) | 10.8 µM (inactive) | 3.07 µM (inactive) |  | 3.83 µM (inactive) | 14.1 µM (inactive) | 13 µM (inactive) | 4.38 µM (inactive) | 11.8 µM (inactive) | 14.1 µM (inactive) | 10.6 µM (inactive) | 2.74 µM (inactive) | 9.2 µM (inactive) |
| COc1cccc(C2SCc3nc4ccccc4n32)c1 (centres undefined) | 34.8 µM (inactive) | 81.3 µM (inactive) | 66.1 µM (inactive) | > 100 µM (inactive) | 14.7 µM (inactive) |  | 76.6 µM (inactive) | 30.1 µM (inactive) | 51.4 µM (inactive) | > 100 µM (inactive) | 35.7 µM (inactive) | 12.2 µM (inactive) | 57.9 µM (inactive) | 58.9 µM (inactive) | 38 µM (inactive) | 77.1 µM (inactive) | > 100 µM (inactive) | 49.9 µM (inactive) |
| COc1cc2c(cc1OC)[C@@H](C(O)c1ccccc1)NCC2 (some centres undefined) | > 100 µM (inactive) |  | > 100 µM (inactive) | > 100 µM (inactive) | > 100 µM (inactive) | > 100 µM (inactive) | > 100 µM (inactive) | > 100 µM (inactive) | > 100 µM (inactive) | > 100 µM (inactive) | > 100 µM (inactive) | > 100 µM (inactive) | > 100 µM (inactive) | > 100 µM (inactive) | > 100 µM (inactive) | > 100 µM (inactive) | > 100 µM (inactive) | > 100 µM (inactive) |
| COc1ccc(-c2onc(-c3c(C)cc(C)cc3C)c2C2=NCCN2)cc1 | 74.5 µM (inactive) | 22.8 µM (inactive) | 39.8 µM (inactive) | > 100 µM (inactive) |  | > 10 µM (inactive) | 18.9 µM (inactive) | 16.4 µM (inactive) | 17.8 µM (inactive) | 31.1 µM (inactive) | 17.6 µM (inactive) |  | 34.8 µM (inactive) | > 100 µM (inactive) |  | 19.5 µM (inactive) | 34 µM (inactive) | 36.3 µM (inactive) |
| CCOC(=O)C1=C(Nc2ccc(Cl)c(Cl)c2)OC/C1=N\NC(=O)Cc1ccccc1 | > 100 µM (inactive) | > 100 µM (inactive) | 61.1 µM (inactive) | > 100 µM (inactive) | > 100 µM (inactive) | > 100 µM (inactive) | > 100 µM (inactive) | > 100 µM (inactive) | > 100 µM (inactive) | > 100 µM (inactive) | > 100 µM (inactive) |  | > 100 µM (inactive) | > 100 µM (inactive) | > 100 µM (inactive) | > 100 µM (inactive) | > 100 µM (inactive) | > 100 µM (inactive) |
| CNS(=O)(=O)NN(C)S(=O)(=O)c1ccc(C)cc1 | > 100 µM (inactive) | > 100 µM (inactive) | > 100 µM (inactive) | > 100 µM (inactive) | > 100 µM (inactive) | > 100 µM (inactive) |  | > 100 µM (inactive) |  | > 100 µM (inactive) | > 100 µM (inactive) | > 100 µM (inactive) | > 100 µM (inactive) | > 100 µM (inactive) | > 100 µM (inactive) | > 100 µM (inactive) | > 100 µM (inactive) | > 100 µM (inactive) |
